The source of these data is paper PMC5859730, “Dual targeting of the cancer antioxidant network with 1,4-naphthoquinone fused Gold(I) N-heterocyclic carbene complexes” (Chemical Science, 2017).

SMILES strings stand for the structures.

The IC50 is the midpoint of a concentration-inhibition curve. Read a low IC50 as greater potency in that assay.

One data set deals with zebrafish embryos. As to the kind of experiment: Zebrafish toxicity analysis (lethality, MTD). The format is in vivo.
Data set [1] in a line: Differential pulse voltammetry, quinone reduction potentials. Format: physicochemical. To be noted: DMSO, 0.1 M [N(nBu)4][PF6], 0.1 mM analyte, vs. SCE. The protocol: A series of electrochemical analyses, including cyclic voltammetry (CV) and differential pulse voltammetry (DPV), were carried out with [NnBu4][PF6] in anhydrous dimethyl sulfoxide (DMSO) in order to evaluate electronic properties of compounds 1–3 and 4[H][Cl]. […] These electrochemical features were attributed to the reduction of the quinone moiety to first produce the semiquinone radical (NQ^–) and then produce the quinone dianion (NQ^2–) forms of compounds 1–3 and 4[H][Cl].[70],[71] The quinone reduction potential in 4[H][Cl] occurs at –0.38 V, the lowest of all the molecules studied, indicative of a positively charged imidazolium ring. The quinone couple at –0.42 V observed for compound 1 is ascribed to the presence of bis(NHC). The same wave in compound 3 appears at a more negative potential (–0.47 V), presumably due to greater trans effects excreted by quinone annulated NHC ligand than the metal-bound chloride. This analysis agrees well with the differences in the observed δ^13C (Au–Ccarbene) resonances for compounds 1 and 3. […]
mM) as referenced to SCE (internal standard Fc0/+, adjusted to 0.435 V vs. SCE).

The test system of another data set is 2780CP ovarian. As to the kind of experiment: Cell proliferation (MTT assay) in 2780CP ovarian cells. Format: cell-based, human. To be noted: isogenic to A2780, multi-drug resistance; Table 3. The protocol:
Further anti-proliferation studies were carried out with complex 1 and its naphthoquinone component 4[H][Cl] using the following cell lines: A2780 ovarian (a wt-p53 cell line sensitive to platinum treatment), 2780CP ovarian (isogenic to A2780 but expressing multi-drug resistance (MDR)), and PC-3 prostate (p53 null) (Table 3).
Biological preparations and assays
Experimental compound preparation. Stock solutions of complexes 1–3, 4[H][Cl], auranofin (Tocris Bioscience 4600), and doxorubicin (Tocris Bioscience 2252) were dissolved in DMSO (2.5–10 mM, depending on the compound and its solubility), aliquoted, and stored at -80 °C prior to use.
Biological Materials and Cell Lines. Cell lines were obtained from the ATCC (A549 and PC-3) and Prof.
Zahid Siddik at M.D. Anderson Cancer Center (A2780 and A2780CP). Cell culture plastic ware (i.e. T-75 flasks, treated 6-well plates, treated 96-well plates, and cell scrapers) were obtained from Fisher Scientific. […]
were made. […] The medium was then removed, the resulting formazan was dissolved in […] DMSO and the respective absorbances were measured at 560–650 nm using a microplate reader (Molecular Devices, Sunnyvale, CA). Absorbance values were corrected for background and then normalized to wells containing untreated cells to allow for plate-to-plate comparisons. […]
A general note: Formazan colour is commonly taken as a measure of viable cells.

For `Cc1cc(C)c(-n2c3c(n(-c4c(C)cc(C)cc4C)[c]2=[Au-]=[c]2n(-c4c(C)cc(C)cc4C)c4c(n2-c2c(C)cc(C)cc2C)C(=O)c2ccccc2C4=O)C(=O)c2ccccc2C3=O)c(C)c1.[Cl][Ag-][Cl]` [Complex 1, [bis(1,3-dimesityl-4,5-naphthoquino-imidazol-2-ylidene)-gold(I)] [silver(I)dichloride]], the Lethality with zebrafish embryos (zebrafish embryos, concentrations above 1 μM) is given as 100%. Further, the “LC50 (50% lethal concentration)” value in the data set on zebrafish embryos (zebrafish embryos/larvae) is 750 nM. The Mortality with zebrafish embryos (zebrafish larvae, 0.75 μM dose) was ~ 50%. Besides, in data set [1] (first reduction, semiquinone radical (NQ˙–)), the “E 1/2 a (V) DPV” value is given as “–0.42 V”. For the same compound, in data set [1] (second reduction, quinone dianion (NQ2–)), the “E 1/2 b (V) DPV” value is recorded as “–1.31 V”. The same compound showed an IC50 in the data set on 2780CP ovarian of 54 ± 6 nM.
